Here are results for seven molecules from ChEMBL document CHEMBL1129923, “Antiallergic activity of some novel oligopeptides related to immunoglobulin E” (1997).

Square brackets hold non-standard residues; d marks the D form. Peptide text beside a SMILES is read from it. NMeA = CN[C@@H](C)C(=O)O

Holding throughout (type): functional
In assay [1] the test system is Rattus norvegicus. Briefly: Tested for antiallergic activity by studying the protection of PCA (passive cutaneous anaphylaxis) after ip administration at a dose of 2.5 mg/kg in rats for four determinations. The settings on record: route intraperitoneal.
Assay [2] relates to Rattus norvegicus. The experiment in a line: Tested for antiallergic activity by studying the protection of PCA (passive cutaneous anaphylaxis) after ip administration at a dose of 7.5 mg/kg in rats for four determinations. The settings on record: route intraperitoneal.
The subject of assay [3] is Rattus norvegicus. Briefly: Effective dose required for protection of mast cells using mast cell stabilising assay at a compound concentration of 7.5 mg/kg po.
Assay [4] concerns Rattus norvegicus. Briefly: Tested for antiallergic activity by studying mast cell stabilising activity after ip administration at a dose of 0.1 mg/kg for five days in rats for four determinations. Conditions: route intraperitoneal.
Assay [5] concerns Rattus norvegicus. The experiment in a line: Tested for antiallergic activity by studying mast cell stabilising activity after ip administration at a dose of 2.5 mg/kg for five days in rats for four determinations. The settings on record: route intraperitoneal.
The test system of assay [6] is Rattus norvegicus. Briefly: Tested for antiallergic activity by studying the protection of PCA (passive cutaneous anaphylaxis) after ip administration at a dose of 5.0 mg/kg in rats for four determinations. The settings on record: route intraperitoneal.
Assay [7] concerns Rattus norvegicus. The experiment in a line: Tested for antiallergic activity by studying the protection of PCA (passive cutaneous anaphylaxis) after ip administration at a dose of 1.0 mg/kg in rats for four determinations. Conditions: route intraperitoneal.
Assay [8] concerns Rattus norvegicus. Briefly: Tested for antiallergic activity by studying the protection of PCA (passive cutaneous anaphylaxis) after ip administration at a dose of 0.5 mg/kg in rats for four determinations. The settings on record: route intraperitoneal.
Assay [9] relates to Rattus norvegicus. The experiment in a line: Tested for antiallergic activity by studying mast cell stabilising activity after ip administration at a dose of 0.5 mg/kg for five days in rats for four determinations. The settings on record: route intraperitoneal.
Assay [10] relates to Rattus norvegicus. Briefly: Tested for antiallergic activity by studying the protection of PCA (passive cutaneous anaphylaxis) after ip administration at a dose of 10.0 mg/kg in rats for four determinations. The settings on record: route intraperitoneal.
Assay [11] deals with Rattus norvegicus. The experiment in a line: Tested for antiallergic activity by studying the protection of PCA (passive cutaneous anaphylaxis) after ip administration at a dose of 1 mg/kg in rats for four determinations. The settings on record: route intraperitoneal.
In assay [12] the test system is Rattus norvegicus. The experiment in a line: Effective dose required for inhibition of PCA at a compound concentration of 7.5 mg/kg po.
For assay [13], the system named is Rattus norvegicus. The experiment in a line: Tested for antiallergic activity by studying mast cell stabilising activity after ip administration at a dose of 0.2 mg/kg for five days in rats for four determinations. The settings on record: route intraperitoneal.
Assay [14] concerns Rattus norvegicus. The experiment in a line: Tested for antiallergic activity by studying mast cell stabilising activity after ip administration at a dose of 0.25 mg/kg in rats for four determinations. The settings on record: route intraperitoneal.
Assay [15] concerns Rattus norvegicus. Briefly: Tested for antiallergic activity by studying mast cell stabilising activity after ip administration at a dose of 1.0 mg/kg for five days in rats for four determinations. The settings on record: route intraperitoneal.
The subject of assay [16] is Rattus norvegicus. The experiment in a line: Tested for antiallergic activity by studying mast cell stabilising activity after ip administration at a dose of 50 mg/kg in rats for four determinations. The settings on record: route intraperitoneal.
Assay [17] has as its system Rattus norvegicus. The experiment in a line: Tested for antiallergic activity by studying the protection of PCA (passive cutaneous anaphylaxis) after ip administration at a dose of 50 mg/kg in rats for four determinations. Conditions: route intraperitoneal.

A word on the ED50: it is the midpoint of the dose-response relation. Higher therefore signals a need for a large dose. Regarding `C[C@H](N)C(=O)N[C@@H](CC(=O)O)C(=O)N[C@@H](CO)C(=O)N[C@@H](CC(=O)O)C(=O)NCC(=O)N[C@@H](CCCCN)C(=O)O`, the Protection in the assay with Rattus norvegicus [1] came out at 67%; in the assay on Rattus norvegicus [2], 86%; in the assay with Rattus norvegicus [4], 34%; with Rattus norvegicus [5], 79%; in the assay on Rattus norvegicus [6] it was 75%; in the assay with Rattus norvegicus [7], 52%. The Protection in the assay on Rattus norvegicus [8] was found to be 44%; in the assay on Rattus norvegicus [9], 47%; in the assay on Rattus norvegicus [10] it was 89%; with Rattus norvegicus [11], 75%; in the assay with Rattus norvegicus [13], 41%; in the assay on Rattus norvegicus [14], 64%. Also, the Protection in the assay with Rattus norvegicus [15] worked out at 72%. For the same molecule, the ED50 in the assay with Rattus norvegicus [3] amounted to 3 mg/kg; in the assay on Rattus norvegicus [12], 0.9 mg/kg.

For the molecule `C[C@@H](N)C(=O)N[C@@H](CC(=O)O)C(=O)N[C@@H](CO)C(=O)N[C@@H](CC(=O)O)C(=O)NCC(=O)N[C@@H](CCCCN)C(=O)O`, the Protection with Rattus norvegicus [11] worked out at 64%; in the assay on Rattus norvegicus [14], 61%.

As to `CN[C@@H](C)C(=O)N[C@@H](CC(=O)O)C(=O)N[C@@H](CO)C(=O)N[C@@H](CC(=O)O)C(=O)NCC(=O)N[C@@H](CCCCN)C(=O)O` (H-[NMeA]DSDGK-OH), the Protection with Rattus norvegicus [11] is on record as 67%; in the assay with Rattus norvegicus [14], 60%.

On to `O=C([O-])c1cc(=O)c2c(OCC(O)COc3cccc4oc(C(=O)[O-])cc(=O)c34)cccc2o1.[Na+].[Na+]` [CROMOLYN SODIUM], for which the Protection is 84% in the assay with Rattus norvegicus [16] and 77% in the assay on Rattus norvegicus [17].

For H-ADSDGK-NH2, the Protection came to 68% in the assay on Rattus norvegicus [11] and 61% in the assay with Rattus norvegicus [14].

On to H-AESDGK-OH, for which the results for the Protection in the assay with Rattus norvegicus [11] and in the assay with Rattus norvegicus [14] were 45% and 63%, respectively.

For H-AGSDGK-OH, the Protection was found to be 69% in the assay with Rattus norvegicus [1]; 88% in the assay with Rattus norvegicus [2]; 39% in the assay on Rattus norvegicus [4]; 87% in the assay on Rattus norvegicus [5]; 77% in the assay with Rattus norvegicus [6]; 57% with Rattus norvegicus [7]. Besides, the Protection is listed as 47% in the assay on Rattus norvegicus [8]; 70% with Rattus norvegicus [9]; 90% in the assay on Rattus norvegicus [10]; 78% in the assay on Rattus norvegicus [11]; 50% in the assay with Rattus norvegicus [13]; 78% in the assay on Rattus norvegicus [14]. In the assay with Rattus norvegicus [15], this molecule registered a Protection of 80%. In addition, the ED50 in the assay on Rattus norvegicus [3] was determined as 1 mg/kg; in the assay on Rattus norvegicus [12], 0.6 mg/kg.
